Data from patent US20130005718A1 (priority 2009, published 2013).
pEC50: −log10 of the molar value. “And” between values parts separate entries of the source, which are not always exact repeats. Equal values may be shown once. “Also recorded” adds a separate entry of the source.

Tests used:
HCN1 channels = biological target: T1, HCN1 channels (Mus musculus, UniProt O88704); assay: Two-electrode voltage clamp (TEVC) of HCN1 channel gating in Xenopus oocytes; type: cell-based, murine; details: for HCN isoform preference (words): HCN1 versus HCN2, 3 or 4
T1 construct: expressed in transfected cells; host or cells: Xenopus oocytes (cRNA injection)

[1] = test system: PNL-induced mechanical allodynia and hyperalgesia; assay: Von Frey fiber test after partial sciatic nerve ligation (PNL); type: in vivo, C57 Black/6J mice
[2] = test system: PNL-induced thermal hyperalgesia; assay: Hind paw withdrawal latency (HPWL) to heat source after PNL; type: in vivo, C57 Black/6J mice; details: i.p., 15% heat stimulus
[3] = type: in vivo, mice
Method: Samples and standards were prepared as follows.
For the standard calibration curve, aliquots of 2,6-DTBP acutely solubilized in DMSO were added to 200 μl of chloroform plus the thymol internal standard (total DMSO addition was 2 μl in all cases). 200 μl of H2O were then added and the samples were processed as described above. In all cases, 2 μl of the chloroform phase was injected for analysis.
(§1) To examine 2,6-DTBP bioavailability, 32 mice received dihydroxy-β-cyclodextrin (DHβCD) solubilized 2,6-DTBP (see below), DHβCD alone or saline by intraperitoneal (i.p.) injection with a dosing schedule as per behavioral testing (see below). 10-60 minutes after receipt of the appropriate final dose, mice were anesthetized with 2.5-3% isoflurane then exsanguinated by venous puncture. Blood concentration of 2,6-DTBP was determined by gas chromatography (see below). To consider toxicity of a high acute therapeutic dose of 2,6-DTBP, some animals received a single bolus of 80 mg/kg. To consider toxicity of an acute hyper-therapeutic dose of 2,6-DTBP, all animals that received three 40 mg/kg therapeutic doses during animal behavior experiments received a 120 mg/kg bolus immediately after the 180 minutes of behavioral testing window, thereby raising the cumulative dose to 240 mg/kg. The general condition of all of these animals was followed by qualitative observation of behavior (grooming and exploration) and survival. All animals were sacrificed within 7 days after receipt of a 2,6-DTBP/DHβCD injection.

mice [4] = assay: Acute toxicity of 2,6-DTBP (behavior and survival); type: in vivo
Method: as §1

[5] = Method: Serial dilutions were then dispersed into the aqueous recording solutions maintaining the DMSO concentration at 0.04% (W/V). […] To this end, appropriate masses of 2,6-DTBP and DHβCD that would yield 6 ml of 1% 2,6-DTBP, in combination with 40% DHβCD, were combined in a Teflon® capped borosilicate vial and heated to 60° C. in a water bath. This temperature is above the melting point of 2,6-DTBP (36° C. (Lorenc et al., 2003) but below that of DHβCD (>200° C. (Loftsson et al., 1996) and is compatible with stability of both reagents (Lorenc et al., 2003; Loftsson et al., 1996 and CAS documentation). After 15 minutes, the molten 2,6-DTBP was intimately mixed with the DHβCD by vigorous vortexing, 200 μl of 60° C. DI H2O added and, following additional vortexing, the vial returned to the water bath for 15-30 minutes. Following addition of 3 more 200 μl aliquots of deionized water (DI H2O), with corresponding incubation and vortexing, the sample was left at 60° C. overnight. The resulting colorless viscous gel was slowly diluted by addition of the required volume of DI H2O adding no more than 200 μl at a time with 15-30 minutes incubation at 60° C. and vortexing after each addition.
The injection port and FID were at 280° C. while the column temperature was 210° C. The split ratio was 2:1 while the column flow was 6.96 ml/min with helium (linear velocity 65 cm/s).
Samples and standards were prepared as follows. To 200 μl of whole blood (drawn following injection of DHβCD or 2,6-DTBP solubilized in DHβCD), 200 μl of chloroform containing 100 nM thymol (Sigma) as internal standard and 2 μl of DMSO were added. Following mixing (vortex for 20 seconds followed by 30 minutes on a rotator) and subsequent centrifugation (5000×g for 10 minutes at 10° C.), the chloroform phase was transferred into a glass gas chromatography vial and washed with an equal volume of 0.5 M NaOH. […] DHβCD was added to the DMSO-solubilized 2,6-DTBP sample and DMSO was added to the DHβCD-solubilized 2,6-DTBP sample so that the final concentrations of DHβCD and DMSO were equivalent. […]

mice [6] = details: i.v. 80-100 mg/kg; cited from earlier work
[7] = variously reported; cited from earlier work
[8] = in vivo; cited from earlier work
[9] = equivalent ionic conditions; cited from earlier work
[10] = listed as 2,6-di-tert-butylphenol

T1 sequence (O88704 whole entry, canonical isoform): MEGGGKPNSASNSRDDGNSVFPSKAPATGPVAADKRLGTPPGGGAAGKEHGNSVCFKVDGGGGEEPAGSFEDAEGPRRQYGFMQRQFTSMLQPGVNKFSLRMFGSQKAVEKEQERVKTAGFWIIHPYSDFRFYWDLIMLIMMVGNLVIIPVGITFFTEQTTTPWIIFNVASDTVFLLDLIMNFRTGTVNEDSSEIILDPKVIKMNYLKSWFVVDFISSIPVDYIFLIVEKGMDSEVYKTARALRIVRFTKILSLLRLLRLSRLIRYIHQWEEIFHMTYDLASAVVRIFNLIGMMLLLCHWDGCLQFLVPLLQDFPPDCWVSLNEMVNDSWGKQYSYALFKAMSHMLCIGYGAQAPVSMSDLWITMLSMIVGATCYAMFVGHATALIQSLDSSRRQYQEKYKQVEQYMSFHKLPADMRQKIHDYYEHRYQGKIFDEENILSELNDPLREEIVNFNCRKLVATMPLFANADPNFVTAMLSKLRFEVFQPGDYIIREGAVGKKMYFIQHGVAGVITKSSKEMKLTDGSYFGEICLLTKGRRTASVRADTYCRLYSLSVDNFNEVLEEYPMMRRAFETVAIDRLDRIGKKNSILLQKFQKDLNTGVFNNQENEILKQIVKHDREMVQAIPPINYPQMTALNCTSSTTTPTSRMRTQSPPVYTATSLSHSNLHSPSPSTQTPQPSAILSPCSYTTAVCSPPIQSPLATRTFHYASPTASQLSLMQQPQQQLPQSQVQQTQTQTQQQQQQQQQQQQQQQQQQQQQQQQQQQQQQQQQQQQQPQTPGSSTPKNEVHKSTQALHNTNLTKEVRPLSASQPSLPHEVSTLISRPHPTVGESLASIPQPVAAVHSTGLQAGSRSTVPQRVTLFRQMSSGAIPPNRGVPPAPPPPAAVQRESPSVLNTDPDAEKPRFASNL

CC(C)(C)c1cccc(C(C)(C)C)c1O [2,6-DTBP, 2,6-di-tert-butylphenol]
HCN1 antagonism (HCN1 channels): strongest potency and highest efficacy of the four derivatives | mean V1/2 of HCN1 activation (HCN1 channels; 10 μM, n=6): −88.3 mV | mean slope of HCN1 activation (HCN1 channels; 10 μM, n=6): 9.6 mV | V1/2 of HCN1 activation (Boltzmann fit, cell shown in FIG. 3A) (HCN1 channels; 10 μM, single cell): −90.8 mV | slope of HCN1 activation (Boltzmann fit, cell shown in FIG. 3A) (HCN1 channels; 10 μM, single cell): 9.7 mV | post incubation maximal current relative to pre incubation current (HCN1 channels; 20 μM, n=6, difference to control not significant): 108% | HCN1 ΔV1/2 after 20-minute incubation (HCN1 channels; 20 μM, solubilized in DHβCD, n=6): −27.7 mV | HCN1 ΔV1/2 after 20-minute incubation (HCN1 channels; 20 μM, solubilized in DMSO, n=6): −31.9 mV | pEC50 (HCN1 channels; 20 min incubation, Xenopus oocytes, TEVC, read-out: EC50 for hyperpolarization of V1/2 of HCN1 gating (Hill fit)): 5.64 and ~5.64 | HCN isoform preference (words) (HCN1 channels): retains this selectivity profile; also recorded: retains a propofol-like selective efficacy against HCN1 channels | HCN isoform preference (words) (HCN1 channels; [10]): preferentially inhibit HCN1 with little efficacy against HCN2, 3 or 4 channels | apparent stoichiometry h (Hill coefficient) (HCN1 channels; Hill fit of dose-response): 1.4 | maximal efficacy ΔV1/2 of HCN1 gating (HCN1 channels; Hill fit of dose-response): −32 mV | mechanical hyperalgesia/allodynia in ipsilateral paw ([1]; i.p. cumulative dosing, post-PNL mice): ameliorates the behavioral consequences of PNL-induced hyperalgesia; also recorded: selectively suppresses PNL-induced mechanical allodynia and hyperalgesia | mechanical threshold, Logit transformation (allodynia, words) ([1]; threshold set at PW of 0.1): restore selectively the mechanical threshold to that observed in the uninjured paw | thermal hyperalgesia, ipsilateral HPWL (words) [2]: ameliorates the behavioral consequences of PNL-induced hyperalgesia; also recorded: selectively ameliorates PNL-induced thermal hyperalgesia | thermal nociception, contralateral HPWL [2]: without significantly altering nociceptive behavior | thermal hyperalgesia, ipsilateral HPWL (words) [2, 10]: significantly relieve the neuropathic behavior | whole blood concentration indicated from the chromatogram shown ([3]; 80 mg/kg i.p. in DHβCD): 3.6 µM | total concentration in whole blood (mean) ([3]; 80 mg/kg i.p. in DHβCD, n=6): 10.6 µM | estimated free serum concentration ([3]; analgesic dose of 40-120 mg/kg i.p.): 0.2 to 0.6 µM | expected free concentration ([3]; from total blood concentration after 80 mg/kg i.p.): 0.1 to 0.5 µM | tolerability of single bolus dose (mice [4]; 80 mg/kg i.p., four mice, seven day observation): all mice tolerated this dose well | tolerability of final bolus (mice [4]; 120 mg/kg bolus after three 40 mg/kg doses, cumulative 240 mg/kg i.p.): not well tolerated | LD75 (mice [4]; acute i.p. dose): ~240 mg/kg | window in which remaining animals died (mice [4]; cumulative 240 mg/kg i.p.): 14 to 18 h | therapeutic index (mice [4]; i.p.): 3 to 5 | concentration solubilized in carrier solution [5]: 1 % (W/V) | solubilization in intralipid emulsion [5]: unsuccessful | storage stability of the solution [5]: no phase separation or derivative precipitation | tolerability of acute intravenous exposure (mice [6]): well tolerated | aqueous solubility limit [7]: 20 to 200 µM | anesthetic activity [8]: total absence of anesthetic efficacy

CCCCC/C=C\C/C=C\C/C=C\C/C=C\CCCC(=O)O [arachidonic acid]
critical micelle concentration [9]: about 100 μM
